Measurements: patent publication US20100292325A1, “P-MENTHAWE-3-CARBOXYLIC ACID ESTERS TO TREAT AIRWAYS DISEASES” (priority 2007, published 2010)

What was measured:
[1] = system: oropharynx (back of the mouth); assay: Bioassay: compound applied by glass rod onto the posterior dorsal tongue, oral sensations noted; assay type: in vivo, human; details: for sensation from the oral cavity: 2 mg on the posterior third of the tongue; for cooling qualities: in vivo
Experimental: CPS-004 and CPS-030 are liquids at room temperatures. These compounds were tested by placing 0, 2, 5 and 8 mg on a 6-inch glass rod and applying these compounds onto the posterior third of the dorsal surface of the tongue. After depositing the test substance, the subject was instructed to keep the mouth closed and allow the test substance to distribute to the back of the mouth (orpharynx). The presence and duration of sensations from the oral cavity was then noted.

TRP-M8 = TRP-M8 (Homo sapiens, UniProt Q7Z2W7); details: cited from earlier work
skin = details: in vivo; cited from earlier work

TRP-M8, sequence (Q7Z2W7 whole entry, species assumed): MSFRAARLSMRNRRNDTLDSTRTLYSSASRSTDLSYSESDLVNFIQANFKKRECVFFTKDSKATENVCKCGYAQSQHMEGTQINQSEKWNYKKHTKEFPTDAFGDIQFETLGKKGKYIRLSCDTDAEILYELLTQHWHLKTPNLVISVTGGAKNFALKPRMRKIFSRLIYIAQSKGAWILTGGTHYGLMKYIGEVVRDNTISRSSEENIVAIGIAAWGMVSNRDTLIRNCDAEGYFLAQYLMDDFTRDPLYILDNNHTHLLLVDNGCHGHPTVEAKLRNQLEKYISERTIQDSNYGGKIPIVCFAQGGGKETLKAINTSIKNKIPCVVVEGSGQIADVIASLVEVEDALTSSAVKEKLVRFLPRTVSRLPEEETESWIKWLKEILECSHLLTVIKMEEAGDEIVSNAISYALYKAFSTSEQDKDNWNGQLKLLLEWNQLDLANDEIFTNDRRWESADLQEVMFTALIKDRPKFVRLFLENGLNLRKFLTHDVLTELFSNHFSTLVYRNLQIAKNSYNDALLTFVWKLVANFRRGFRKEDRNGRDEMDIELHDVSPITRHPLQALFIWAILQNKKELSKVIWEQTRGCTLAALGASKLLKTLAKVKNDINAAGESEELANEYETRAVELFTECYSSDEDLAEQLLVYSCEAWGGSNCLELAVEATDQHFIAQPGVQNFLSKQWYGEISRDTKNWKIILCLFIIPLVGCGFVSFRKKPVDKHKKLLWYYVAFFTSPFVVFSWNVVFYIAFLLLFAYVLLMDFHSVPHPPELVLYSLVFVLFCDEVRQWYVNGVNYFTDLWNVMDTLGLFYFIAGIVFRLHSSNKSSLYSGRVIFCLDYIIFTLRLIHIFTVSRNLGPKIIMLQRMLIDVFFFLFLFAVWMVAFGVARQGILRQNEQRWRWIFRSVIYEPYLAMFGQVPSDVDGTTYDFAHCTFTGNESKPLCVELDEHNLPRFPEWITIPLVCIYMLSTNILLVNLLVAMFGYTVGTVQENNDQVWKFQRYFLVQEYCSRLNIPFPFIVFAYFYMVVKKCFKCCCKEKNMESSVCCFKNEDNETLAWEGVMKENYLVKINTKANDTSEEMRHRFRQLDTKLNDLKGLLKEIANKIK

Structure (SMILES)	sensation from the oral cavity [1]	cooling qualities [1]	potency on TRP-M8 relative to menthol (TRP-M8) [times]	cooling action on the skin (skin)	taste ([1]; applied onto the tongue)
CC(C)[C@@H]1CC[C@@H](C)C[C@H]1C(=O)OCCO [CPS-004]	cooling effect on the back of the mouth	good cooling qualities			
COc1ccc(NC(=O)[C@@H]2C[C@H](C)CC[C@H]2C(C)C)cc1 [WS-12]			2000	does not produce very much cooling action on the skin	
CC(C)[C@@H]1CC[C@@H](C)C[C@H]1C(=O)OCC(O)CO (stereo partly shown) [CPS-030]	cooling effect on the back of the mouth	good cooling qualities			acrid taste which was objectionable
